Earlier results, collected in PubChem BioAssay AID1259409 (Chemical Carcinogenesis Research Information System (CCRIS), 2018).

Test system: rodent chemically induced tumor inhibition, incidence and multiplicity
Assay: CCRIS tumor inhibitor studies
Details: Species: RAT, Strain/Sex: F344/MALE

Compound: O=P(O)(O)OC1C(OP(=O)(O)O)C(OP(=O)(O)O)C(OP(=O)(O)O)C(OP(=O)(O)O)C1OP(=O)(O)O (stereo not given)
- tumour outcome (control, treated, inhibition, significance) (Carcinogen: 2,2'-DIHYDROXY-DI-N-PROPYLNITROSAMINE [621-64-7], N-ETHYL-N-HYDROXYETHYLNITROSAMINE [13147-25-6], 3,2'-DIMETHYL-4-AMINOB, Carcinogen: 2,2'-DIHYDROXY-DI-N-PROPYLNITROSAMINE [621-64-7], N-ETHYL-N-HYDROXYETHYLNITROSAMINE [13147-25-6], 3,2'-DIMETHYL-4-AMINOB, Dose [Inhibitor]: 2% IN DIET FOR 32 WK BEGINNING 1 WK POST LAST CARCINOGEN DOSE (STUDY DURATION: 32 WK), Route [Inhibitor]: ORAL, Target Tissue: Type of Lesion: LIVER: ADENOMA, Dose [Carcinogen]: 1000 MG/KG BW DHPN IP 2X/3 WK, 1500 MG/KG BW EHEN IP 2X/3 WK, 75 MG/KG BW DMAB SC 3X/3 WK;, Dose [Carcinogen]: 1000 MG/KG BW DHPN IP 2X/3 WK, 1500 MG/KG BW EHEN IP 2X/3 WK, 75 MG/KG BW DMAB SC 3X/3 WK;, Promoter: NONE): 9/14 (64%), 5/12 (42%), 34%, p<0.01
- tumour outcome (control, treated, inhibition, significance) (Carcinogen: 2,2'-DIHYDROXY-DI-N-PROPYLNITROSAMINE [621-64-7], N-ETHYL-N-HYDROXYETHYLNITROSAMINE [13147-25-6], 3,2'-DIMETHYL-4-AMINOB, Carcinogen: 2,2'-DIHYDROXY-DI-N-PROPYLNITROSAMINE [621-64-7], N-ETHYL-N-HYDROXYETHYLNITROSAMINE [13147-25-6], 3,2'-DIMETHYL-4-AMINOB, Dose [Inhibitor]: 2% IN DIET FOR 32 WK BEGINNING 1 WK POST LAST CARCINOGEN DOSE (STUDY DURATION: 32 WK), Route [Inhibitor]: ORAL, Target Tissue: Type of Lesion: LIVER: CARCINOMA, Dose [Carcinogen]: 1000 MG/KG BW DHPN IP 2X/3 WK, 1500 MG/KG BW EHEN IP 2X/3 WK, 75 MG/KG BW DMAB SC 3X/3 WK;, Dose [Carcinogen]: 1000 MG/KG BW DHPN IP 2X/3 WK, 1500 MG/KG BW EHEN IP 2X/3 WK, 75 MG/KG BW DMAB SC 3X/3 WK;, Promoter: NONE): 6/14 (43%), 1/12 (8%), 81%, not significant
- tumour outcome (control, treated, inhibition, significance) (Carcinogen: 2,2'-DIHYDROXY-DI-N-PROPYLNITROSAMINE [621-64-7], N-ETHYL-N-HYDROXYETHYLNITROSAMINE [13147-25-6], 3,2'-DIMETHYL-4-AMINOB, Carcinogen: 2,2'-DIHYDROXY-DI-N-PROPYLNITROSAMINE [621-64-7], N-ETHYL-N-HYDROXYETHYLNITROSAMINE [13147-25-6], 3,2'-DIMETHYL-4-AMINOB, Dose [Inhibitor]: 2% IN DIET FOR 32 WK BEGINNING 1 WK POST LAST CARCINOGEN DOSE (STUDY DURATION: 32 WK), Route [Inhibitor]: ORAL, Target Tissue: Type of Lesion: LUNG: ADENOMA, Dose [Carcinogen]: 1000 MG/KG BW DHPN IP 2X/3 WK, 1500 MG/KG BW EHEN IP 2X/3 WK, 75 MG/KG BW DMAB SC 3X/3 WK;, Dose [Carcinogen]: 1000 MG/KG BW DHPN IP 2X/3 WK, 1500 MG/KG BW EHEN IP 2X/3 WK, 75 MG/KG BW DMAB SC 3X/3 WK;, Promoter: NONE): 7/14 (50%), 9/12 (75%), -50%, not significant
- tumour outcome (control, treated, inhibition, significance) (Carcinogen: 2,2'-DIHYDROXY-DI-N-PROPYLNITROSAMINE [621-64-7], N-ETHYL-N-HYDROXYETHYLNITROSAMINE [13147-25-6], 3,2'-DIMETHYL-4-AMINOB, Carcinogen: 2,2'-DIHYDROXY-DI-N-PROPYLNITROSAMINE [621-64-7], N-ETHYL-N-HYDROXYETHYLNITROSAMINE [13147-25-6], 3,2'-DIMETHYL-4-AMINOB, Dose [Inhibitor]: 2% IN DIET FOR 32 WK BEGINNING 1 WK POST LAST CARCINOGEN DOSE (STUDY DURATION: 32 WK), Route [Inhibitor]: ORAL, Target Tissue: Type of Lesion: URINARY BLADDER: CARCINOMA, Dose [Carcinogen]: 1000 MG/KG BW DHPN IP 2X/3 WK, 1500 MG/KG BW EHEN IP 2X/3 WK, 75 MG/KG BW DMAB SC 3X/3 WK;, Dose [Carcinogen]: 1000 MG/KG BW DHPN IP 2X/3 WK, 1500 MG/KG BW EHEN IP 2X/3 WK, 75 MG/KG BW DMAB SC 3X/3 WK;, Promoter: NONE): 1/14 (7%), 4/12 (33%), -371%, not significant
- outcome (Carcinogen: 2,2'-DIHYDROXY-DI-N-PROPYLNITROSAMINE [621-64-7], N-ETHYL-N-HYDROXYETHYLNITROSAMINE [13147-25-6], 3,2'-DIMETHYL-4-AMINOB, Carcinogen: 2,2'-DIHYDROXY-DI-N-PROPYLNITROSAMINE [621-64-7], N-ETHYL-N-HYDROXYETHYLNITROSAMINE [13147-25-6], 3,2'-DIMETHYL-4-AMINOB, Dose [Inhibitor]: 2% IN DIET FOR 32 WK BEGINNING 1 WK POST LAST CARCINOGEN DOSE (STUDY DURATION: 32 WK), Route [Inhibitor]: ORAL, Target Tissue: Type of Lesion: URINARY BLADDER: PAPILLOMA, Dose [Carcinogen]: 1000 MG/KG BW DHPN IP 2X/3 WK, 1500 MG/KG BW EHEN IP 2X/3 WK, 75 MG/KG BW DMAB SC 3X/3 WK;, Dose [Carcinogen]: 1000 MG/KG BW DHPN IP 2X/3 WK, 1500 MG/KG BW EHEN IP 2X/3 WK, 75 MG/KG BW DMAB SC 3X/3 WK;, Promoter: NONE): 0/14 (0%), 6/12 (50%), -100%, p<0.01
- tumour outcome (control, treated, inhibition, significance) (Carcinogen: 2,2'-DIHYDROXY-DI-N-PROPYLNITROSAMINE, 53609-64-6, N-ETHYL-N-HYDROXYETHYL- NITROSAMINE, 13147-25-6, 3,2'-DIMETHYL-4-, Carcinogen: 2,2'-DIHYDROXY-DI-N-PROPYLNITROSAMINE, 53609-64-6, N-ETHYL-N-HYDROXYETHYL- NITROSAMINE, 13147-25-6, 3,2'-DIMETHYL-4-, Dose [Inhibitor]: 0, 2% IN DIET BEGINNING 1 WK POST LAST CARCINOGEN DOSE AND CONTINUING FOR 32 WK (STUDY DURATION: 36 WK), Route [Inhibitor]: 0RAL, Target Tissue: Type of Lesion: URINARY BLADDER: CARCINOMA, Dose [Carcinogen]: 1000 MG/KG IP DHPN 2X, 1500 MG/KG GAV EHEN 2X AND 75 MG/KG SC DMAB 3X GIVEN OVER THE INITIAL 3 WK PERIOD AT 3-4 D INTERV, Promoter: NONE USED): 1/14 (7%), 2/12 (17%), -143%, not calculated
- tumour outcome (control, treated, inhibition, significance) (Carcinogen: 2,2'-DIHYDROXY-DI-N-PROPYLNITROSAMINE, 53609-64-6, N-ETHYL-N-HYDROXYETHYL- NITROSAMINE, 13147-25-6, 3,2'-DIMETHYL-4-, Carcinogen: 2,2'-DIHYDROXY-DI-N-PROPYLNITROSAMINE, 53609-64-6, N-ETHYL-N-HYDROXYETHYL- NITROSAMINE, 13147-25-6, 3,2'-DIMETHYL-4-, Dose [Inhibitor]: 0, 2% IN DIET BEGINNING 1 WK POST LAST CARCINOGEN DOSE AND CONTINUING FOR 32 WK (STUDY DURATION: 36 WK), Route [Inhibitor]: ORAL, Target Tissue: Type of Lesion: LARGE INTESTINE: ADENOMA, Dose [Carcinogen]: 1000 MG/KG/ IP DHPN 2X, 1500 MG/KG GAV EHEN 2X AND 75 MG/KG SC DMAB 3X GIVEN OVER THE INITIAL 3 WK AT 3-4 D INTERVALS, Promoter: NONE USED): 7/14 (50%), 5/12 (42%), 16%, not calculated
- tumour outcome (control, treated, inhibition, significance) (Carcinogen: 2,2'-DIHYDROXY-DI-N-PROPYLNITROSAMINE, 53609-64-6, N-ETHYL-N-HYDROXYETHYL- NITROSAMINE, 13147-25-6, 3,2'-DIMETHYL-4-, Carcinogen: 2,2'-DIHYDROXY-DI-N-PROPYLNITROSAMINE, 53609-64-6, N-ETHYL-N-HYDROXYETHYL- NITROSAMINE, 13147-25-6, 3,2'-DIMETHYL-4-, Dose [Inhibitor]: 0, 2% IN DIET BEGINNING 1 WK POST LAST CARCINOGEN DOSE AND CONTINUING FOR 32 WK (STUDY DURATION: 36 WK), Route [Inhibitor]: ORAL, Target Tissue: Type of Lesion: LARGE INTESTINE: CARCINOMA, Dose [Carcinogen]: 1000 MG/KG IP DHPN 2X, 1500 MG/KG GAV EHEN 2X AND 75 MG/KG SC DMAB 3X GIVEN OVER THE INITIAL 3 WK PERIOD AT 3-4 D INTERV, Promoter: NONE USED): 3/14 (21%), 4/12 (33%), -57%, not calculated
- tumour outcome (control, treated, inhibition, significance) (Carcinogen: 2,2'-DIHYDROXY-DI-N-PROPYLNITROSAMINE, 53609-64-6, N-ETHYL-N-HYDROXYETHYL- NITROSAMINE, 13147-25-6, 3,2'-DIMETHYL-4-, Carcinogen: 2,2'-DIHYDROXY-DI-N-PROPYLNITROSAMINE, 53609-64-6, N-ETHYL-N-HYDROXYETHYL- NITROSAMINE, 13147-25-6, 3,2'-DIMETHYL-4-, Dose [Inhibitor]: 0, 2% IN DIET BEGINNING 1 WK POST LAST CARCINOGEN DOSE AND CONTINUING FOR 32 WK (STUDY DURATION: 36 WK), Route [Inhibitor]: ORAL, Target Tissue: Type of Lesion: LIVER: HEPATOCELLULAR CARCINOMA, Dose [Carcinogen]: 1000 MG/KG IP DHPN 2X, 1500 MG/KG GAV EHEN 2X AND 75 MG/KG SC DMAB 3X GIVEN OVER THE INITIAL 3 WK AT 3-4 D INTERVALS, Promoter: NONE USED): 6/14 (43%), 1/12 (8%), 81%, not calculated
- tumour outcome (control, treated, inhibition, significance) (Carcinogen: 2,2'-DIHYDROXY-DI-N-PROPYLNITROSAMINE, 53609-64-6, N-ETHYL-N-HYDROXYETHYL- NITROSAMINE, 13147-25-6, 3,2'-DIMETHYL-4-, Carcinogen: 2,2'-DIHYDROXY-DI-N-PROPYLNITROSAMINE, 53609-64-6, N-ETHYL-N-HYDROXYETHYL- NITROSAMINE, 13147-25-6, 3,2'-DIMETHYL-4-, Dose [Inhibitor]: 0, 2% IN DIET BEGINNING 1 WK POST LAST CARCINOGEN DOSE AND CONTINUING FOR 32 WK (STUDY DURATION: 36 WK), Route [Inhibitor]: ORAL, Target Tissue: Type of Lesion: LUNG: ADENOMA, Dose [Carcinogen]: 1000 MG/KG IP DHPN 2X, 1500 MG/KG GAV EHEN 2X AND 75 MG/KG SC DMAB 3X GIVEN OVER THE INITIAL 3 WK PERIOD AT 3-4 D INTERV, Promoter: NONE USED): 7/14 (50%), 9/12 (75%), -50%, not calculated
